What was measured:
HCV GT1a(H77) replicon = experiment: HCV replicon luciferase reporter assay, genotype 1a; format: cell-based, HCV genotype 1a; settings: Hepatitis C virus, 72 h, HUH-7 cells, Renilla luciferase, 3 days incubation, read-out: LE_1a (EC50, range)
Summary of the method: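 Huh-7 cells stably carried a GT1a(H77) Renilla luciferase replicon with NS3 P1496L and NS5A S2204I adaptive mutations. Luminescence was read after 2 h with 7.5 μM EnduRen, and EC50 came from a four-parameter logistic fit; CC50 came from multiplexed Cell Titer-Blue (8 h).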

HCV GT1b(Con1) replicon = experiment: HCV replicon luciferase reporter assay, genotype 1b; format: cell-based, HCV genotype 1b; settings: Hepatitis C virus, 72 h, HUH-7 cells, Renilla luciferase, 3 days incubation, read-out: LE_1b (EC50, range)
Summary of the method: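 HUH-7 cells stably carrying a Con1 GT1b replicon with Renilla luciferase and Ser1179Ile adaptive mutation; 3.0×10^3 cells/well, DMEM 4% FCS, 0.5% DMSO, twenty-point 3-fold titration, 3 days 37 °C. Luminescence 2 h after 7.5 μM EnduRen; EC50 by four-parameter logistic fit. CC50 from multiplexed Cell Titer-Blue fluorescence (8 h).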

CC(C)Oc1ccc(-c2cc(O[C@@H]3C[C@H]4C(=O)N[C@]5(C(=O)NS(=O)(=O)C6(C)CC6)C[C@H]5/C=C\CC[C@H](C)C[C@@H](C)[C@H](NC(=O)OC(C)(C)C(F)(F)F)C(=O)N4C3)cc(-c3nccs3)n2)cc1 [Compound 1008, 1,1,1-trifluoro-2-methylpropan-2-yl ((2R,6S,7R,9S,13aS,14aR,16aS,Z)-2-((2-(4-isopropoxyphenyl)-6-(thiazol-2-yl)pyridin-4-yl)oxy)-7,9-dimethyl-14a-(((1-methylcyclopropyl)sulfonyl)carbamoyl)-5,16-dioxo-1,2,3,5,6,7,8,9,10,11,13a,14,14a,15,16,16a-hexadecahydrocyclopropa[e]pyrrolo[1,2-a][1,4]diazacyclopentadecin-6-yl)carbamate]
EC50 (HCV GT1a(H77) replicon): 5.01 to 35 nM
EC50 (HCV GT1b(Con1) replicon): 1.01 to 5 nM

CC[C@@H]1OCCC/C=C\[C@@H]2C[C@@]2(C(=O)NS(=O)(=O)C2(C)CC2)NC(=O)[C@@H]2C[C@@H](Oc3cc(-c4ccc(OC(C)C)cc4)nc(-c4cncs4)c3)CN2C(=O)[C@H]1NC(=O)OC1(C(F)(F)F)CCCOC1 (stereo partly drawn) [Compound 1038, 3-(trifluoromethyl)tetrahydro-2H-pyran-3-yl ((2R,6S,7S,13aS,14aR,16aS,Z)-7-ethyl-2-((2-(4-isopropoxyphenyl)-6-(thiazol-5-yl)pyridin-4-yl)oxy)-14a-(((1-methylcyclopropyl)sulfonyl)carbamoyl)-5,16-dioxo-2,3,5,6,7,9,10,11,13a,14,14a,15,16,16a-tetradecahydro-1H-cyclopropa[i]pyrrolo[1,2-e][1,5,8]oxadiazacyclopentadecin-6-yl)carbamate]
EC50 (HCV GT1a(H77) replicon): 1.01 to 5 nM
EC50 (HCV GT1b(Con1) replicon): 0.51 to 1 nM

CC(C)Oc1ccc(-c2cc(O[C@@H]3C[C@H]4C(=O)N[C@]5(C(=O)NS(=O)(=O)C6(C)CC6)C[C@H]5/C=C\CC[C@@H](C)C[C@@H](C)[C@H](NC(=O)OC(C)(C)C(F)(F)F)C(=O)N4C3)cc(-n3cccn3)n2)cc1 [Compound 1013, 1,1,1-trifluoro-2-methylpropan-2-yl ((2R,6S,7R,9R,13aS,14aR,16aS,Z)-2-((2-(4-isopropoxyphenyl)-6-(1H-pyrazol-1-yl)pyridin-4-yl)oxy)-7,9-dimethyl-14a-(((1-methylcyclopropyl)sulfonyl)carbamoyl)-5,16-dioxo-1,2,3,5,6,7,8,9,10,11,13a,14,14a,15,16,16a-hexadecahydrocyclopropa[e]pyrrolo[1,2-a][1,4]diazacyclopentadecin-6-yl)carbamate]
EC50 (HCV GT1a(H77) replicon): 1.01 to 5 nM
EC50 (HCV GT1b(Con1) replicon): 1.01 to 5 nM

CC(C)Oc1ccc(-c2cc(O[C@@H]3C[C@H]4C(=O)N[C@]5(C(=O)NS(=O)(=O)C6(C)CC6)C[C@H]5/C=C\CC[C@@H](C)C[C@@H](C)[C@H](NC(=O)OC(C)(C)C(F)(F)F)C(=O)N4C3)cc(-c3cnccn3)n2)cc1 [Compound 1001, 1,1,1-trifluoro-2-methylpropan-2-yl ((2R,6S,7R,9R,13aS,14aR,16aS,Z)-2-((2-(4-isopropoxyphenyl)-6-(pyrazin-2-yl)pyridin-4-yl)oxy)-7,9-dimethyl-14a-(((1-methylcyclopropyl)sulfonyl)carbamoyl)-5,16-dioxo-1,2,3,5,6,7,8,9,10,11,13a,14,14a,15,16,16a-hexadecahydrocyclopropa[e]pyrrolo[1,2-a][1,4]diazacyclopentadecin-6-yl)carbamate]
EC50 (HCV GT1a(H77) replicon): 1.01 to 5 nM
EC50 (HCV GT1b(Con1) replicon): 0.51 to 1 nM

Cc1cnc(-c2cc(O[C@@H]3C[C@H]4C(=O)N[C@]5(C(=O)NS(=O)(=O)C6(C)CC6)C[C@H]5/C=C\CC[C@@H](C)C[C@@H](C)[C@H](NC(=O)OC(C)(C)C(F)(F)F)C(=O)N4C3)ccn2)s1 [Compound 1043, 1,1,1-trifluoro-2-methylpropan-2-yl ((2R,6S,7R,9R,13aS,14aR,16aS,Z)-7,9-dimethyl-14a-(((1-methylcyclopropyl)sulfonyl)carbamoyl)-2-((2-(5-methylthiazol-2-yl)pyridin-4-yl)oxy)-5,16-dioxo-1,2,3,5,6,7,8,9,10,11,13a,14,14a,15,16,16a-hexadecahydrocyclopropa[e]pyrrolo[1,2-a][1,4]diazacyclopentadecin-6-yl)carbamate]
EC50 (HCV GT1a(H77) replicon): 0.51 to 1 nM
EC50 (HCV GT1b(Con1) replicon): 0.1 to 0.5 nM

C[C@@H]1CC/C=C\[C@@H]2C[C@@]2(C(=O)NS(=O)(=O)C2(C)CC2)NC(=O)[C@@H]2C[C@@H](Oc3ccc(-c4nccs4)cn3)CN2C(=O)[C@@H](NC(=O)OC(C)(C)C(F)(F)F)[C@H](C)C1 [Compound 1064, 1,1,1-trifluoro-2-methylpropan-2-yl ((2R,6S,7R,9R,13aS,14aR,16aS,Z)-7,9-dimethyl-14a-(((1-methylcyclopropyl)sulfonyl)carbamoyl)-5,16-dioxo-2-((5-(thiazol-2-yl)pyridin-2-yl)oxy)-1,2,3,5,6,7,8,9,10,11,13a,14,14a,15,16,16a-hexadecahydrocyclopropa[e]pyrrolo[1,2-a][1,4]diazacyclopentadecin-6-yl)carbamate]
EC50 (HCV GT1a(H77) replicon): 1.01 to 5 nM
EC50 (HCV GT1b(Con1) replicon): 0.1 to 0.5 nM

CC(C)Oc1ccc(-c2cc(O[C@@H]3C[C@H]4C(=O)N[C@]5(C(=O)NS(=O)(=O)C6(C)CC6)C[C@H]5/C=C\CC[C@@H](C)C[C@@H](C)[C@H](NC(=O)OC5(C(F)(F)F)CCCOC5)C(=O)N4C3)cc(-c3ncccn3)n2)cc1 (stereo partly drawn) [Compound 1048, 3-(trifluoromethyl)tetrahydro-2H-pyran-3-yl ((2R,6S,7R,9R,13aS,14aR,16aS,Z)-2-((2-(4-isopropoxyphenyl)-6-(pyrimidin-2-yl)pyridin-4-yl)oxy)-7,9-dimethyl-14a-(((1-methylcyclopropyl)sulfonyl)carbamoyl)-5,16-dioxo-1,2,3,5,6,7,8,9,10,11,13a,14,14a,15,16,16a-hexadecahydrocyclopropa[e]pyrrolo[1,2-a][1,4]diazacyclopentadecin-6-yl)carbamate]
EC50 (HCV GT1a(H77) replicon): 1.01 to 5 nM
EC50 (HCV GT1b(Con1) replicon): 1.01 to 5 nM

CC(C)Oc1ccc(-c2cc(O[C@@H]3C[C@H]4C(=O)N[C@]5(C(=O)NS(=O)(=O)C6(C)CC6)C[C@H]5/C=C\CC[C@H](C)C[C@@H](C)[C@H](NC(=O)OC(C)(C)C(F)(F)F)C(=O)N4C3)cc(-c3ncccn3)n2)cc1 [Compound 1020, 1,1,1-trifluoro-2-methylpropan-2-yl ((2R,6S,7R,9S,13aS,14aR,16aS,Z)-2-((2-(4-isopropoxyphenyl)-6-(pyrimidin-2-yl)pyridin-4-yl)oxy)-7,9-dimethyl-14a-(((1-methylcyclopropyl)sulfonyl)carbamoyl)-5,16-dioxo-1,2,3,5,6,7,8,9,10,11,13a,14,14a,15,16,16a-hexadecahydrocyclopropa[e]pyrrolo[1,2-a][1,4]diazacyclopentadecin-6-yl)carbamate]
EC50 (HCV GT1a(H77) replicon): 5.01 to 35 nM
EC50 (HCV GT1b(Con1) replicon): 1.01 to 5 nM

CC[C@@H]1O[C@H](C)CC/C=C\[C@@H]2C[C@@]2(C(=O)NS(=O)(=O)C2(C)CC2)NC(=O)[C@@H]2C[C@@H](Oc3cc(-c4ccc(OC(C)C)cc4)nc(-c4cscn4)c3)CN2C(=O)[C@H]1NC(=O)OC1(C(F)(F)F)CCCOC1 (stereo partly drawn) [Compound 1036, 3-(trifluoromethyl)tetrahydro-2H-pyran-3-yl ((2R,6S,7S,9R,13aS,14aR,16aS,Z)-7-ethyl-2-((2-(4-isopropoxyphenyl)-6-(thiazol-4-yl)pyridin-4-yl)oxy)-9-methyl-14a-(((1-methylcyclopropyl)sulfonyl)carbamoyl)-5,16-dioxo-2,3,5,6,7,9,10,11,13a,14,14a,15,16,16a-tetradecahydro-1H-cyclopropa[i]pyrrolo[1,2-e][1,5,8]oxadiazacyclopentadecin-6-yl)carbamate]
EC50 (HCV GT1a(H77) replicon): 0.51 to 1 nM
EC50 (HCV GT1b(Con1) replicon): 0.1 to 0.5 nM

CC[C@@H]1C[C@H](C)CC/C=C\[C@@H]2C[C@@]2(C(=O)NS(=O)(=O)C2CC2)NC(=O)[C@@H]2C[C@@H](Oc3cc(-c4ccc(C(F)(F)F)cc4)nc(-c4nccs4)c3)CN2C(=O)[C@H]1NC(=O)OC1(C(F)(F)F)CCCOC1 (stereo partly drawn) [Compound 1054, 3-(trifluoromethyl)tetrahydro-2H-pyran-3-yl ((2R,6S,7R,9R,13aS,14aR,16aS,Z)-14a-((cyclopropylsulfonyl)carbamoyl)-7-ethyl-9-methyl-5,16-dioxo-2-((2-(thiazol-2-yl)-6-(4-(trifluoromethyl)phenyl)pyridin-4-yl)oxy)-1,2,3,5,6,7,8,9,10,11,13a,14,14a,15,16,16a-hexadecahydrocyclopropa[e]pyrrolo[1,2-a][1,4]diazacyclopentadecin-6-yl)carbamate]
EC50 (HCV GT1a(H77) replicon): 1.01 to 5 nM
EC50 (HCV GT1b(Con1) replicon): 0.51 to 1 nM

COc1cccc(-c2cc(O[C@@H]3C[C@H]4C(=O)N[C@]5(C(=O)NS(=O)(=O)C6(C)CC6)C[C@H]5/C=C\CC[C@@H](C)C[C@@H](C)[C@H](NC(=O)OC(C)(C)C(F)(F)F)C(=O)N4C3)cc(-c3ccc(OC(C)C)cc3)n2)n1 [Compound 1011, 1,1,1-trifluoro-2-methylpropan-2-yl ((2R,6S,7R,9R,13aS,14aR,16aS,Z)-2-((6-(4-isopropoxyphenyl)-6′-methoxy-[2,2′-bipyridin]-4-yl)oxy)-7,9-dimethyl-14a-(((1-methylcyclopropyl)sulfonyl)carbamoyl)-5,16-dioxo-1,2,3,5,6,7,8,9,10,11,13a,14,14a,15,16,16a-hexadecahydrocyclopropa[e]pyrrolo[1,2-a][1,4]diazacyclopentadecin-6-yl)carbamate]
EC50 (HCV GT1a(H77) replicon): 1.01 to 5 nM
EC50 (HCV GT1b(Con1) replicon): 1.01 to 5 nM

From patent publication US9334279B2, “Hepatitis C virus inhibitors” (BRISTOL-MYERS SQUIBB COMPANY, priority 2012, dated 2016)
